Results reported in US20210292315A1, “SELENIUM-CONTAINING ISOXAZOLAMINE COMPOUND, PREPARATION METHOD THEREFOR, AND USE THEREOF” (SHANGHAI XINGYE PHARMACEUTICAL TECHNOLOGY CO., LTD, priority 2018, published 2021).
pIC50: −log10 of the molar value. Like-named read-outs stand apart in the source and are kept apart here.

Assays:
TNF-α = TNF-α activity inhibiting assay: LPS-stimulated peripheral blood, TNF-α by ELISA; format: cell-based, human; settings: LPS 10 ng/mL, 6 hours, diluted peripheral blood from healthy volunteers, read-out: TNF-α inhibition (%)
Experimental: Methods: Peripheral blood from healthy volunteers was collected with EDTA anticoagulant tubes. After being diluted 5-fold with 1640 medium (Gibco, USA), the blood was added to 96-well cell culture plates (Costar, USA) and then treated with 10 μL solution of the compound of general formula (I) of the present invention in DMSO (Sigma, USA), and the final concentration of DMSO was 0.2%. After incubation for 60 minutes in an incubator at 37° C. under 5% CO2, 10 μL LPS (Sigma, USA) was added to the reaction system, and the final concentration was 10 ng/mL. After further culturing for 6 hours in the incubator at 37° C. under 5% CO2, the supernatant was collected. The content of TNF-α was determined by ELISA (BD Biosciences, USA). Absorbance was detected at OD450 nm with a microplate reader, with GD 650 nm as reference. The control, a solution containing 0.2% DMSO medium, was as 0% inhibition. Raw data and standard curves were recorded. The four-parameter drug inhibition curve was plotted by XL-fit software and the inhibition rate of each compound was calculated.

[1] = Glutathione peroxidase (GPx)-like activity assay, coupled NADPH oxidation at 340 nm; format: biochemical; settings: compound 50 μm, GSH 2.0 mM, pH 7.5, 25° C.; for Initial rate v0, Cum-OOH: peroxide Cum-OOH 1.6 mM; for Initial rate v0, H2O2: peroxide H2O2 1.6 mM; for Initial rate v0, tBuOOH: peroxide tBuOOH 1.6 mM
Experimental: Method: GPX activity of selenium compounds was assayed by ultraviolet spectrophotometry. Glutathione (2.0 mM), EDTA (1 mM), glutathione disulfide reductase (1.7 units mL^−1), and nicotinamide adenine dinucleotide phosphate […] (NADPH; 0.4 mM) were mixed intopotassium phosphate buffer (0.1 M, pH=7.5). The selenium compounds (50 μm) was added to the above mixture At room temperature (25° C.), and the reaction was started by the addition of H2O2, tBuOOH or Cum-OOH (1.6 mM) respectively. The initial reduction rates were calculated from the rate of NADPH oxidation at 340 nm in a GSH assay. Each initial rate was measured at least three times and calculated from the first 5-10% of the reaction by using 6.22 mM^−1 cm^−1 as the molar extinction coefficient for NADPH. For the peroxidase activity, the rates were corrected for the background reaction between peroxide and thiol.

[2] = target: T1, Thioredoxin Reductase 1 (TrxR1) (Homo sapiens, UniProt Q16881); experiment: Thioredoxin reductase 1 (TrxR1) activity inhibiting assay, NADPH consumption at 340 nm; format: biochemical; settings: insulin/Trx/NADPH system, absorbance 340 nm; read-out: TrxR inhibition IC50
T1 sequence (Q16881 151-649 limits assumed): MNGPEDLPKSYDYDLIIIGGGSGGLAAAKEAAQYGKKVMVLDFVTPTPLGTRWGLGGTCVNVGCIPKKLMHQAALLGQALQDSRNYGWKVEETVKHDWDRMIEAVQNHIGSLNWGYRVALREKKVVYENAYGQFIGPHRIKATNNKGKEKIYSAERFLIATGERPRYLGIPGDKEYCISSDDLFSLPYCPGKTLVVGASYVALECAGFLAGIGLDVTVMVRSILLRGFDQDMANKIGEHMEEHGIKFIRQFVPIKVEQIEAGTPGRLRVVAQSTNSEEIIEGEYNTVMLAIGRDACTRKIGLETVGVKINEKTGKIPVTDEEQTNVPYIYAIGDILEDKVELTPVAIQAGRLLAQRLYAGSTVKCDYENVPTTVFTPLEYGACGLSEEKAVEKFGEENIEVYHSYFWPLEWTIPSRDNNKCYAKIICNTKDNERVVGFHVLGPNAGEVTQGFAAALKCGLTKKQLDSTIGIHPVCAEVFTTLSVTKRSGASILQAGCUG
Experimental: Working solutions: 0.119 mg/mL of TrxR working solution preparation: 175 μL of TrxR stock solution (0.34 mg/mL) was diluted to 500 μL; 1 mM NADPH working solution preparation, NADPH (5 mg) was dissolved in 12 mL potassium phosphate buffer; 1 mM DTNB working solution preparation: 25 mg DTNB was dissolve in 63 mL DMSO; potassium phosphate buffer system preparation: 0.2 mg/mL bovine serum albumin (BSA) and 1 mM EDTA were added to potassium phosphate buffer at pH 7.4 (K2HPO4/KH2PO4).
Methods: The TrxR1 inhibitory activity study of selenium-containing isoxazolamines in vitro. Insulin, NADPH, Trx, the samples and TrxR1 were added to a microcuvette in order, and subsequently added the work buffer (0.1 mol/L potassium phosphate/2 mmol/L EDTA) to a total volume of 0.5 mL. The concentration of each component in the obtained reaction system is: insulin 130 μmol/L, NADPH […] (Sigma), Trx 4 μmol/L, the added substrate (the selenium-containing isoxazolamines treated samples). After determination of the initial absorption at 340 nm, the enzymatic reaction was started by adding 20 μg extracted TrxR1 proteins, the decrease in absorbance at 340 nm was monitored. One unit of enzymatic activity is defined as the consumption. The activity can be calculated from the extinction coefficient of NADPH, and the unit of enzyme activity is defined as: 1U=ΔA340 nm/min×1000, the TR activity could be calculated with U/L. The results are shown in table 2.

| Compound | pIC50 (TNF-α; Homo sapiens) | pIC50 [2] | pIC50 (TNF-α) | further results |
| --- | --- | --- | --- | --- |
| O=C1CCC(n2[se]c3ccccc3c2=O)C(=O)N1 (stereo not shown) [Compound 1] | 4.00 to 5.00 | 4.30 to 5.30 | – | Initial rate v0, Cum-OOH [1]: 124.5 ± 7.6 μm min^−1; Initial rate v0, H2O2 [1]: 109.7 ± 2.1 μm min^−1; Initial rate v0, tBuOOH [1]: 42.0 ± 3.3 μm min^−1 |
| O=C1CCC(n2[se]c3cccc([N+](=O)[O-])c3c2=O)C(=O)N1 (stereo not shown) [Compound 2] | 5.00 to 6.00 | 4.30 to 5.30 | – | – |
| Nc1cccc2[se]n(C3CCC(=O)NC3=O)c(=O)c12 (stereo not shown) [Compound 3] | > 6.00 | – | – | – |
| O=C1CCC(n2[se]c3ccc(F)cc3c2=O)C(=O)N1 (stereo not shown) [Compound 4] | 4.00 to 5.00 | > 5.30 | – | – |
| O=C1CCC(n2[se]c3c([N+](=O)[O-])cccc3c2=O)C(=O)N1 (stereo not shown) [Compound 5] | 5.00 to 6.00 | 4.00 to 4.30 | – | – |
| Nc1cccc2c(=O)n(C3CCC(=O)NC3=O)[se]c12 (stereo not shown) [Compound 6] | – | – | > 6.00 | – |
| O=C1CCC(n2[se]c3cc(F)ccc3c2=O)C(=O)N1 (stereo not shown) [Compound 7] | 4.00 to 5.00 | > 5.30 | – | Initial rate v0, Cum-OOH [1]: 142.2 ± 8.2 μm min^−1; Initial rate v0, H2O2 [1]: 128.2 ± 2.0 μm min^−1; Initial rate v0, tBuOOH [1]: 49.3 ± 5.0 μm min^−1 |
| O=C1CCC(n2[se]c3cc(Cl)ccc3c2=O)C(=O)N1 (stereo not shown) [Compound 8] | 4.00 to 5.00 | 4.30 to 5.30 | – | – |
| CC(=O)Nc1cccc2c(=O)n(C3CCC(=O)NC3=O)[se]c12 (stereo not shown) [Compound 9] | 4.00 to 5.00 | 4.30 to 5.30 | – | – |
| O=C1CCC(n2[se]c3c(F)cccc3c2=O)C(=O)N1 (stereo not shown) [Compound 10] | 5.00 to 6.00 | > 5.30 | – | – |
| COc1cccc2c(=O)n(C3CCC(=O)NC3=O)[se]c12 (stereo not shown) [Compound 11] | – | – | 5.00 to 6.00 | – |
| COc1cc2[se]n(C3CCC(=O)NC3=O)c(=O)c2cc1OC (stereo not shown) [Compound 13] | 5.00 to 6.00 | > 5.30 | – | – |
| COc1cc2c(=O)n(C3CCC(=O)NC3=O)[se]c2c(OC)c1OC (stereo not shown) [Compound 14] | – | – | > 6.00 | – |
| Cc1cccc2c(=O)n(C3CCC(=O)NC3=O)[se]c12 (stereo not shown) [Compound 15] | – | – | > 6.00 | – |
| N#Cc1cccc2c(=O)n(C3CCC(=O)NC3=O)[se]c12 (stereo not shown) [Compound 16] | 5.00 to 6.00 | 4.30 to 5.30 | – | – |
| CC1(C)S[C@@H]2[C@H](n3[se]c4ccccc4c3=O)C(=O)N2[C@H]1C(=O)O [Compound 17] | < 4.00 | > 5.30 | – | – |
| CC1(C)S[C@@H]2[C@H](n3[se]c4ccc(F)cc4c3=O)C(=O)N2[C@H]1C(=O)O [Compound 18] | – | – | < 4.00 | – |
| O=c1c2ccccc2[se]n1C12CC3CC(CC(O)(C3)C1)C2 [Compound 19] | – | – | 4.00 to 5.00 | Initial rate v0, Cum-OOH [1]: 34.2 ± 1.5 μm min^−1; Initial rate v0, H2O2 [1]: 99.7 ± 1.9 μm min^−1; Initial rate v0, tBuOOH [1]: 32.3 ± 3.5 μm min^−1 |
| O=c1c2cc(F)ccc2[se]n1C12CC3CC(CC(O)(C3)C1)C2 [Compound 20] | – | – | 4.00 to 5.00 | – |
| O=c1c2ccccc2[se]n1-c1nc2ccc(OC(F)(F)F)cc2s1 [Compound 22] | 5.00 to 6.00 | > 5.30 | – | – |
| COc1ccc2nc(-n3[se]c4ccccc4c3=O)sc2c1 [Compound 23] | – | 4.30 to 5.30 | 4.00 to 5.00 | – |

| Compound | pIC50 (TNF-α; Homo sapiens) | pIC50 [2] | pIC50 (TNF-α) | further results |
| --- | --- | --- | --- | --- |
| O=C1CC(n2[se]c3ccccc3c2=O)C(=O)N1 (stereo not shown) [Compound 24] | – | – | 4.00 to 5.00 | – |
| COc1ccc2[se]n(C3CC(=O)NC3=O)c(=O)c2c1 (stereo not shown) [Compound 25] | 4.00 to 5.00 | 4.30 to 5.30 | – | – |
| O=C1CC(n2[se]c3cc(F)ccc3c2=O)C(=O)N1 (stereo not shown) [Compound 26] | – | – | 4.00 to 5.00 | Initial rate v0, Cum-OOH [1]: 164.5 ± 9.1 μm min^−1; Initial rate v0, H2O2 [1]: 145.2 ± 3.4 μm min^−1; Initial rate v0, tBuOOH [1]: 55.7 ± 5.2 μm min^−1 |
| O=C1CC(n2[se]c3c(F)cccc3c2=O)C(=O)N1 (stereo not shown) [Compound 27] | – | 4.30 to 5.30 | 5.00 to 6.00 | – |
| Cc1cccc2c(=O)n(C3CC(=O)NC3=O)[se]c12 (stereo not shown) [Compound 28] | – | – | > 6.00 | – |
| COc1cccc2c(=O)n(-c3nc4ccc(OC(F)(F)F)cc4s3)[se]c12 [Compound 30] | 4.00 to 5.00 | > 5.30 | – | – |
| O=C1c2ccccc2[Se](=O)N1C12CC3CC(CC(O)(C3)C1)C2 (stereo not shown) [Compound 32] | < 4.00 | – | – | Initial rate v0, Cum-OOH [1]: 11.5 ± 0.2 μm min^−1; Initial rate v0, H2O2 [1]: 36.7 ± 0.8 μm min^−1; Initial rate v0, tBuOOH [1]: 12.0 ± 2.3 μm min^−1 |
| O=C1c2ccccc2[Se](=O)N1c1nc2ccccc2s1 (stereo not shown) [Compound 33] | < 4.00 | – | – | – |
| Nc1cccc2c1[Se](=O)N(C1CCC(=O)NC1=O)C2=O (stereo not shown) [Compound 35] | – | – | > 6.00 | – |
| O=C1CCC(N2C(=O)c3cc(F)ccc3[Se]2=O)C(=O)N1 (stereo not shown) [Compound 36] | – | – | 4.00 to 5.00 | – |
| CC(=O)Nc1cccc2c1[Se](=O)N(C1CCC(=O)NC1=O)C2=O (stereo not shown) [Compound 37] | – | – | 4.00 to 5.00 | – |
| O=C1CCC(N2C(=O)c3ccc(F)cc3[Se]2=O)C(=O)N1 (stereo not shown) [Compound 39] | – | – | 4.00 to 5.00 | – |
| COc1cccc2c1[Se](=O)N(C1CCC(=O)NC1=O)C2=O (stereo not shown) [Compound 40] | 5.00 to 6.00 | 4.00 to 4.30 | – | – |
| O=C1CC(N2C(=O)c3ccccc3[Se]2=O)C(=O)N1 (stereo not shown) [Compound 41] | – | – | 4.00 to 5.00 | – |
| COc1cccc2c1[Se]N(C1CCC(=O)NC1=O)C2 (stereo not shown) [Compound 44] | 5.00 to 6.00 | – | – | – |
| COc1ccc2c(c1)CN(C1CCC(=O)NC1=O)[Se]2 (stereo not shown) [Compound 45] | – | 4.30 to 5.30 | – | – |
| COc1cccc2c1[Se]N(C13CC4CC(CC(O)(C4)C1)C3)C2 [Compound 50] | 4.00 to 5.00 | – | – | – |
| O=c1c2ccccc2[se]n1-c1ccccc1 [Ebselen, reference compound] | – | 4.00 to 4.30 | – | – |
| Nc1cccc2c1CN(C1CCC(=O)NC1=O)C2=O (stereo not shown) [Lenadomide, reference compound] | > 6.00 | – | – | – |
| O=C1CCC(N2C(=O)c3ccccc3C2=O)C(=O)N1 (stereo not shown) [Thalidomide, reference compound] | < 4.00 | – | – | – |
